This note sets out measurements from patent US4061862A, “Derivatives of 7-(cyclized)phenylglycyl-3-triazolo-thio methyl cephalosporin” (priority 1976, dated 1977).

One assay can be described thus: Bio-assay (mcg./mg.). Here is the method:
7-[D-α-amino-α-(p-hydroxyphenyl)acetamido]-3-(1,2,3-triazol-5-ylthiomethyl)-3-cephem-4-carboxylic acid methanol solvate (15 g.) was slurried in 60 ml. of water. The pH was raised to 6.5 by addition of 4N NaOH and the mixture was passed through a 200 mesh screen. The reaction mixture was slurried at room temperature for 2 hours, the pH being maintained at 6.5 during this period. The crystals were removed by filtration, washed with 20 ml. of water and air dried at 37° C. for 24 hours to give 11.5 g. of title crystalline product. Bio assay = 924 mcg./mg. (average % H2 O, K.F. = 5.26).
7-[D-α-amino-α-(p-hydroxyphenyl)acetamido]-3-(1,2,3-triazol-5-ylthiomethyl)-3-cephem-4-carboxylic acid methanol solvate (200 mesh; 10.0 g.) substantially free of propylene glycol is slurried in 30-40 ml. of deionized water at ambient room temperature (20°-25° C.) to give a pH 3-4 aqueous suspension. NaOH (40%) is slowly added with rapid stirring to bring the pH to 6.3-6.7. The mixture is slurried at pH 6.3-6.7 for 2 hours. The crystals are removed by filtration, washed with water and air dried at room temperature for 24 hours to give a 75-80% weight yield of 950-1000 mcg./mg. crystals of 7-[D-α-amino-α-(p-hydroxyphenyl)acetamido]-3-(1,2,3-triazol-5-ylthiomethyl)-3-cephem-4-carboxylic acid dihydrate. […] H2 O, K.F. = 6.56.

In a further assay the test system is Ent. cloacae A9659. As to the kind of experiment: Antibiotic spectrum in nutrient broth, MIC. To be noted: Enterobacter cloacae, 10^-4 dilution, BL-S1052 adjusted for 97.5% content of BL-S640. The format is cell-based. From the text: (§1) Antibiotic Spectrum in Nutrient Broth
(§2) **Dilution of overnight broth culture.
(§3) This adjustment was also mad
(§4) in the tests reported below or in the alternative, a larger weight was
(§5) used to provide equivalent dosage.

The test system of another assay is Pr. morganii A15153. As to the kind of experiment: Antibiotic spectrum in nutrient broth, MIC. The format is cell-based. The following applies: Morganella morganii, 10^-4 dilution, BL-S1052 adjusted for 97.5% content of BL-S640.
Excerpt: as §1, §2, §3, §4, §5

A further assay has as its system S. aureus BX1633. As to the kind of experiment: Antibiotic spectrum in nutrient broth, MIC. It is filed as cell-based. The following applies: Staphylococcus aureus.
Excerpt: as §1, §2, §3, §4, §5

SMILES strings stand for the structures. Converted amounts (≈) assume the structure as drawn. Where two headings read alike, the source gives them in different places.

Regarding `O=C(O)C1=C(CSc2c[nH]nn2)CSC2C(N3C(=O)C(c4ccc(O)cc4)NC3c3ccco3)C(=O)N12` (centres unmarked) [BL-S1052], the Bio-assay in the assay “Bio-assay (mcg./mg.)” lay in the range of 775 to 800 µg/mg. In addition, the MIC (usually the lowest concentration found to suppress growth) with Ent. cloacae A9659 was 32 mg/L (≈ 59.2 µM); against Pr. morganii A15153, 32 mg/L (≈ 59.2 µM); in the assay with S. aureus BX1633 (BX1633), 0.25 mg/L (≈ 0.462 µM); in the assay with S. aureus BX1633 (BX1633, 10^-2 dilution, A9606, BL-S1052 adjusted for 97.5% content of BL-S640, read-out: MIC) it was 2 mg/L (≈ 3.7 µM).
